Assay results from patent publication US7674815B2, “Heteroaryl and benzyl amide compounds” (Hoffmann-La Roche Inc., priority 2006, dated 2010).

The compounds below were run against T1, cholesteryl ester transfer protein (CETP) (Homo sapiens, UniProt P11597) (assay: CETP inhibition SPA assay in the presence of plasma (CETP source human lipoprotein-deprived serum)). Conditions: source of CETP human lipoprotein-deprived serum (LPDS), radiolabeled cholesteryl ester transfer HDL to LDL.
T1 construct: the source of CETP was human lipoprotein-deprived serum (LPDS); from tissue; host or cells: human lipoprotein-deprived serum (LPDS)
T1 sequence (P11597 18-493): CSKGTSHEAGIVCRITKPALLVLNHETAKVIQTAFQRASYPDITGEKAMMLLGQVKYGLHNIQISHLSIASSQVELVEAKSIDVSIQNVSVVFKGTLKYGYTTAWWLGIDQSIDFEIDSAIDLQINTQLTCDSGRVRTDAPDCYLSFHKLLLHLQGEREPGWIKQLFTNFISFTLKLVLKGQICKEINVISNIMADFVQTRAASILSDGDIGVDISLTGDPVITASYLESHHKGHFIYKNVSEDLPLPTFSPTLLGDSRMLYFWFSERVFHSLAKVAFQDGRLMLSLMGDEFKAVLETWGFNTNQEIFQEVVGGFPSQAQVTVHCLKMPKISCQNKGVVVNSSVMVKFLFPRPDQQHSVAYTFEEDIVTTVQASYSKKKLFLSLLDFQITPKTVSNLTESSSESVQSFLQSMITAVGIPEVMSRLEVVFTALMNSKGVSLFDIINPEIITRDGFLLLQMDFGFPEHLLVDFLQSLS
Type: biochemical
Method: Activity of CETP inhibitors was determined using a buffer assay system. Partially purified CETP transferred radiolabeled cholesteryl ester from HDL donor particles to biotin-labeled LDL acceptor particles. The reaction was stopped by addition of streptavidin-coupled scintillation proximity assay (SPA) beads. These beads captured the biotinylated acceptor particles and transferred radioactivity was measured. The assay system was purchased and performed according to manufacturer's recommendations (Amersham Biosciences). Inhibitory activity of compounds was determined as percentage of positive control activity containing CETP together with donor and acceptor particles. Serial dilution of compounds was performed in order to determine the IC50 values.
Activity of the compounds was subsequently measured in the presence of plasma using the same assay as described above except that the source of CETP was human lipoprotein-deprived serum (LPDS). Inhibitory activity of compounds was determined as percentage of positive control activity containing all the assay components except compound. Serial dilution of compounds was performed in order to determine the IC50 values.

| IC50 [nM] | Structure (SMILES) |
| --- | --- |
| 7020 | O=C(c1cc(Cl)cc2cc[nH]c12)N(CCc1ccc(Cl)c(Cl)c1)Cc1cc2ccccc2o1 [Compound 1, 5-chloro-1H-indole-7-carboxylic acid benzofuran-2-ylmethyl-[2-(3,4-dichloro-phenyl)-ethyl]-amide] |
| 282 | CNc1cnc(Cl)cc1C(=O)N(CCc1ccc(Cl)c(Cl)c1)Cc1ccc(C(C)(C)C)nc1 [Compound 38, N-(6-tert-butyl-pyridin-3-ylmethyl)-2-chloro-N-[2-(3,4-dichloro-phenyl)-ethyl]-5-methylamino-isonicotinamide] |
| 56 | CNc1ncc(Cl)cc1C(=O)N(CCc1cccc(C(F)(F)F)c1)Cc1ccc(C(C)(C)C)s1 [Compound 53, N-(5-tert-butyl-thiophen-2-ylmethyl)-5-chloro-2-methylamino-N-[2-(3-trifluoromethyl-phenyl)-ethyl]-nicotinamide] |
